{"source": "patent US20230263822A1", "about": "“MODULATION OF FACTOR 11 EXPRESSION” (Ionis Pharmaceuticals, Inc., priority 2008, published 2023)", "note": "Strand notation (5' to 3'): a small letter for the sugar, then the base; units joined by * are phosphorothioate-linked, units joined directly phosphodiester-linked; [ ] holds rarer units or linkages, { } end groups; capitals alone tell only the bases. e = 2'-O-(2-methoxyethyl) (MOE); [5mC] = 5-methylcytosine; d = 2'-deoxy (DNA)"}
{"tested_on": "human Factor 11 mRNA", "assay": "Antisense inhibition of human Factor 11 in HepG2 cells by microwalk gapmers, lipofectin, 75 nM (Example 3)", "assay_type": "cell-based", "conditions": "HepG2, lipofectin, ~24 h, gapmers targeted to nucleobases 656 to 704 of SEQ ID NO: 1", "how_it_was_run": "(§1)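 HepG2 cells (10,000/well) were transfected via lipofectin with 75 nM 20-mer MOE gapmers (phosphorothioate, 5-methyl-C) for about 24 h. Factor 11 mRNA was measured by qRT-PCR, normalized to RIBOGREEN total RNA, and given as percent inhibition versus untreated cells.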", "units": {"% inhibition": "%"}}
{"substance": "416971 (antisense eA*eT*dG*d[5mC]*d[5mC]*d[5mC]*dT*dT*d[5mC]*dA*dT*dG*dT*d[5mC]*dT*eA*eG*eG*eT*e[5mC]) [compound 416971]", "% inhibition": 83}
{"substance": "416974 (antisense eT*eT*dT*dA*dT*dG*d[5mC]*d[5mC]*d[5mC]*dT*dT*d[5mC]*dA*dT*dG*eT*e[5mC]*eT*eA*eG) [compound 416974]", "% inhibition": 73}
{"tested_on": "human Factor 11 mRNA", "assay": "Antisense inhibition of human Factor 11 in HepG2 cells by microwalk gapmers, lipofectin, 75 nM (Example 3)", "assay_type": "cell-based", "conditions": "HepG2 cells, lipofectin, gapmers targeted to nucleobases 738 to 762 of SEQ ID NO: 1", "how_it_was_run": "as §1", "units": {"% inhibition": "%"}}
{"substance": "416975 (antisense e[5mC]*e[5mC]*dG*dT*dG*d[5mC]*dA*dT*d[5mC]*dT*dT*dT*d[5mC]*dT*dT*eG*eG*e[5mC]*eA*eT) [compound 416975]", "% inhibition": 87}
{"substance": "416976 (antisense eT*e[5mC]*d[5mC]*dG*dT*dG*d[5mC]*dA*dT*d[5mC]*dT*dT*dT*d[5mC]*dT*eT*eG*eG*e[5mC]*eA) [compound 416976]", "% inhibition": 83}
{"substance": "416977 (antisense eA*eT*d[5mC]*d[5mC]*dG*dT*dG*d[5mC]*dA*dT*d[5mC]*dT*dT*dT*d[5mC]*eT*eT*eG*eG*e[5mC]) [compound 416977]", "% inhibition": 82}
{"substance": "416978 (antisense e[5mC]*eA*dT*d[5mC]*d[5mC]*dG*dT*dG*d[5mC]*dA*dT*d[5mC]*dT*dT*dT*e[5mC]*eT*eT*eG*eG) [compound 416978]", "% inhibition": 76}
{"substance": "416979 (antisense eT*e[5mC]*dA*dT*d[5mC]*d[5mC]*dG*dT*dG*d[5mC]*dA*dT*d[5mC]*dT*dT*eT*e[5mC]*eT*eT*eG) [compound 416979]", "% inhibition": 63}
{"substance": "416980 (antisense eG*eT*d[5mC]*dA*dT*d[5mC]*d[5mC]*dG*dT*dG*d[5mC]*dA*dT*d[5mC]*dT*eT*eT*e[5mC]*eT*eT) [compound 416980]", "% inhibition": 87}
{"tested_on": "human Factor 11 mRNA", "assay": "Antisense inhibition of human Factor 11 in HepG2 cells by microwalk gapmers, lipofectin, 75 nM (Example 3)", "assay_type": "cell-based", "conditions": "HepG2 cells, lipofectin, gapmers targeted to nucleobases 1018 to 1042 of SEQ ID NO: 1", "how_it_was_run": "as §1", "units": {"% inhibition": "%"}}
{"substance": "416981 (antisense e[5mC]*e[5mC]*dG*dG*dG*dA*dT*dG*dA*dT*dG*dA*dG*dT*dG*e[5mC]*eA*eG*eA*eT) [compound 416981]", "% inhibition": 87}
{"substance": "416982 (antisense eA*e[5mC]*d[5mC]*dG*dG*dG*dA*dT*dG*dA*dT*dG*dA*dG*dT*eG*e[5mC]*eA*eG*eA) [compound 416982]", "% inhibition": 84}
{"substance": "416983 (antisense eA*eA*d[5mC]*d[5mC]*dG*dG*dG*dA*dT*dG*dA*dT*dG*dA*dG*eT*eG*e[5mC]*eA*eG) [compound 416983]", "% inhibition": 86}
{"tested_on": "human Factor 11 mRNA", "assay": "Antisense inhibition of human Factor 11 in HepG2 cells by microwalk gapmers, lipofectin, 75 nM (Example 3)", "assay_type": "cell-based", "conditions": "HepG2 cells, lipofectin, gapmers targeted to nucleobases 1062 to 1091 of SEQ ID NO: 1", "how_it_was_run": "as §1", "units": {"% inhibition": "%"}}
{"substance": "416986 (antisense eA*eT*dT*d[5mC]*dT*dT*dT*dG*dG*dG*d[5mC]*d[5mC]*dA*dT*dT*e[5mC]*e[5mC]*eT*eG*eG) [compound 416986]", "% inhibition": 88}
{"substance": "416987 (antisense eG*eA*dT*dT*d[5mC]*dT*dT*dT*dG*dG*dG*d[5mC]*d[5mC]*dA*dT*eT*e[5mC]*e[5mC]*eT*eG) [compound 416987]", "% inhibition": 80}
{"substance": "416988 (antisense eA*eG*dA*dT*dT*d[5mC]*dT*dT*dT*dG*dG*dG*d[5mC]*d[5mC]*dA*eT*eT*e[5mC]*e[5mC]*eT) [compound 416988]", "% inhibition": 76}
{"substance": "416990 (antisense eT*eG*dA*dG*dA*dT*dT*d[5mC]*dT*dT*dT*dG*dG*dG*d[5mC]*e[5mC]*eA*eT*eT*e[5mC]) [compound 416990]", "% inhibition": 76}
{"substance": "416991 (antisense eT*eT*dG*dA*dG*dA*dT*dT*d[5mC]*dT*dT*dT*dG*dG*dG*e[5mC]*e[5mC]*eA*eT*eT) [compound 416991]", "% inhibition": 87}
{"substance": "416992 (antisense eT*eT*dT*dG*dA*dG*dA*dT*dT*d[5mC]*dT*dT*dT*dG*dG*eG*e[5mC]*e[5mC]*eA*eT) [compound 416992]", "% inhibition": 84}
{"substance": "416994 (antisense eT*e[5mC]*dT*dT*dT*dG*dA*dG*dA*dT*dT*d[5mC]*dT*dT*dT*eG*eG*eG*e[5mC]*e[5mC]) [compound 416994]", "% inhibition": 83}
{"substance": "416995 (antisense eT*eT*d[5mC]*dT*dT*dT*dG*dA*dG*dA*dT*dT*d[5mC]*dT*dT*eT*eG*eG*eG*e[5mC]) [compound 416995]", "% inhibition": 64}
{"substance": "416996 (antisense eT*eT*dT*d[5mC]*dT*dT*dT*dG*dA*dG*dA*dT*dT*d[5mC]*dT*eT*eT*eG*eG*eG) [compound 416996]", "% inhibition": 22}
